In patent US20050042674A9, “Common ligand mimics: thiazolidinediones and rhodanines” (priority 2002, published 2005):
Values joined by “and” are separate entries in the source; they are usually repeats but may differ in a detail not shown here. Equal values may be shown once. Read-outs that look alike come from different tables or passages of the source.

How the values were obtained:
[1] = target: dihydrodipicolinate reductase (DHPR) (Escherichia coli, UniProt P04036); assay: DHPR kinetic assay, spectrophotometric oxidation of NADPH at 340 nm; assay type: biochemical; conditions: Examples 36/37, FIG. 16/17
Protocol: DHPR was diluted in 10 mM HEPES at a pH of 7.4. DHPS (dihydrodipicolinate synthase) was not diluted and was stored in eppindorf tubes.
The L-ASA (L-aspartate semialdehyde) solution was prepared in the following manner. […] stock solution of ASA was prepared. 100 μl of the ASA stock solution was mixed with 150 μl of concentrated NaHCO3 and 375 μl of H2O. For use in the assay, 28.8 mM L-ASA was equal to 625 μl of the solution. The L-ASA stock solution was kept at a temperature of −20° C. After dilution, the pH of the 28.8 mM solution was checked and maintained between 1 and 2.
The solution for background detection was a 945 μl solution containing 0.1 HEPES (pH 7.8), 1 mM pyruvate, 6 μM NADPH, 40 μM L-ASA, and 7 μl of 1 mg/ml DHPS at 25° C. in the volumes provided above. The sample solution was then mixed and incubated for 10 minutes. Next, 500 nM solutions of the inhibitors and enough DMSO to provide a final DMSO concentration of 5% of the total assay volume were added. The solution was mixed and incubated for an additional 6 minutes.
In DHPR samples, 5 μl of the diluted DHPR enzyme were added. The sample was mixed for 20 seconds and then the reaction was run for 10 minutes. […] Reading of the samples was continued until 300 seconds. […] The substrate was kept at a level at least 10 times the Km. The final concentration of L-ASA was about 1 mM.

[2] = target: isopropylmalate dehydrogenase (IPMDH) (Escherichia coli, UniProt P30125); assay: IPMDH kinetic assay, spectrophotometric reduction of NAD at 340 nm; assay type: biochemical, E. coli; conditions: Examples 36/37, FIG. 16/17
Protocol: Inhibitor was incubated for 5 minutes at 37° C. in a 990 μl of a solution containing 20 mM potassium phosphate, pH 7.6, 0.3 M potassium chloride, 0.2 mM manganese chloride, 109 μM NAD, and 340 μM DL-threo-3-isopropylmalic acid (IPM). […] Reading of the samples was continued until 300 seconds. The final concentration of DMSO in the cuvette was 5% of the total assay volume. […] The substrate was kept at a level at least 10 times the Km.

[3] = target: 1-deoxy-D-xylulose-5-phosphate reductase (DOXPR) (Escherichia coli, UniProt P45568); assay: DOXPR kinetic assay, spectrophotometric oxidation of NADPH at 340 nm; assay type: biochemical; conditions: Examples 36/37, FIG. 16/17
Protocol: DOXPR was diluted in 10 mM HEPES at a pH of 7.4.
(§1) Solutions of the inhibitors in DMSO were prepared to provide a final DMSO concentration of 5% of the total assay volume. […] The oxidation reaction was then initiated with 10 μl of DOXP reductoisomerase (10 μg/ml). […] Reading of the samples was continued until 300 seconds. […] The substrate was kept at a level at least 10 times the Km.

[4] = target: dihydrofolate reductase (DHFR) (UniProt P00374); assay: DHFR kinetic assay, spectrophotometric oxidation of NADH at 340 nm; assay type: biochemical
Protocol: H2 folate was dissolved in DMSO to about 10 mM and then diluted with water to a concentration of 0.1 mM.
Solutions of 100 μl of the inhibitors in DMSO were prepared to provide a final DMSO concentration of 5% of the total assay volume. […] The oxidation reaction was then initiated with 8 μl of DHFR (0.047 mg/ml). […] Reading of the samples was continued until 300 seconds. Cuvette #1 always contained the control reaction (no inhibitor), and cuvette #2 always contained the positive control reaction in which Cibacron Blue at 3 μM was substituted for inhibitor to yield […] inhibition. The substrate was kept at a level at least 10 times the Km.

[5] = target: glyceraldehyde-3-phosphate dehydrogenase (GAPDH) (Escherichia coli, UniProt P0A9B2); assay: GAPDH kinetic assay, spectrophotometric reduction of NAD+ at 340 nm; assay type: biochemical, E. coli; conditions: Examples 36/37, FIG. 16/17
Protocol: Reading of the samples was continued until 300 seconds. […] Cuvette #1 contained the control reaction (no inhibitor).
GAP for use in this experiment was deprotected from the diethyl acetal in the following manner. Water was boiled in recrystallizing dish. […] The tube was then immersed, while shaking, in the boiling water for 3 minutes.

[6] = target: T1, lactate dehydrogenase (LDH) (Oryctolagus cuniculus, UniProt P13491); assay: LDH kinetic assay, spectrophotometric oxidation of NADH at 340 nm; assay type: biochemical, Rabbit
T1 construct: LDH from Rabbit Muscle; from tissue; host or cells: rabbit muscle
Protocol: as §1, with “Solutions of 100 μl” for “Solutions”, “The” for “The oxidation”, “LDH from Rabbit Muscle (0.5 μ/ml; 1:2000 dilution of 1.0 mg/ml).” for “DOXP reductoisomerase (10 μg/ml).”

[7] = target: Human Aldose Reductase (AR) (Homo sapiens, UniProt P15121); assay: AR kinetic assay, spectrophotometric measurement of enzyme activity at 340 nm; assay type: biochemical
Protocol: Solutions of 100 μl of the inhibitors in DMSO were prepared to provide a final DMSO concentration of 5% of the total assay volume. […] The reaction was then initiated with 10 μl of Human Aldose Reductase (1:5 dilution of 0.55 mg/ml). […] Reading of the samples was continued until 300 seconds. The final DMSO concentration in the cuvette was 5%. […] The substrate was kept at a level at least 10 times the Km.

[8] = target: T2, alcohol dehydrogenase (ADH) (Saccharomyces cerevisiae, UniProt P00330); assay: ADH kinetic assay, spectrophotometric reduction of NAD+ at 340 nm; assay type: biochemical, Bakers Yeast; conditions: Examples 36/37, FIG. 16/17
T2 construct: ADH from Bakers Yeast; from tissue; host or cells: bakers yeast
T2 sequence (P00330 1-348): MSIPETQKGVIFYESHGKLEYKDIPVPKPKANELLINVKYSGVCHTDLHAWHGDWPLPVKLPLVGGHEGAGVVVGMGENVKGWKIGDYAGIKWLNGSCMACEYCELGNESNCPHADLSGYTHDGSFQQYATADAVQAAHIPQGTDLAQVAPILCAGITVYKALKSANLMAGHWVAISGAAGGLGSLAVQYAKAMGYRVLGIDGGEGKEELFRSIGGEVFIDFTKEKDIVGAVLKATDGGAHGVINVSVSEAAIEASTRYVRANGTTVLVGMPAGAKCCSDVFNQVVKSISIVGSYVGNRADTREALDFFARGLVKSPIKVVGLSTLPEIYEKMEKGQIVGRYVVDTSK
Protocol: Solutions of 100 μl of the inhibitors in DMSO were prepared to provide a final DMSO concentration of 5% of the total assay volume. […] The reaction was then initiated with 10 μl of ADH from Bakers Yeast (3.3 μg/ml; 1:400 dilution of 1.0 mg/ml). […] Reading of the samples was continued until 300 seconds. […] The substrate was kept at a level at least 10 times the Km. The final concentration of pyruvate was about 2.5 mM.
Where only a simple read was desired, as in the case of NAD+concentration determination, 13 μl (10 M stock) of ethanol was used to drive the reaction, and 10 μl of pure enzyme (1 mg/ml) was used. NAD+was soluble at 2 mM, which allowed the concentration determination step to be skipped. In this situation, the procedure was as follows. All of the ingredients except for the enzyme were mixed together. The solution was mixed well and the absorbance at 340 nm read. The enzyme was added and read again at OD 340 after the absorbance stopped changing, generally 10 to 15 minutes after the enzyme was added.

[9] = target: inosine-5′-monophosphate dehydrogenase (IMPDH); assay: IMPDH kinetic assay, spectrophotometric reduction of NAD+ at 340 nm; assay type: biochemical; conditions: for IC50: Examples 36/37, FIG. 16/17
Protocol: Solutions of 100 μl of the inhibitors in DMSO were prepared to provide a final DMSO concentration of 5% of the total assay volume. These solutions were incubated for 6 minutes at 37° C. in a 992 μl of a solution containing 0.1 M Tris-HCl, pH 8.0, 0.25 M KCl, 0.3% glycerol, 30 μM NAD+, and 600 μM IMP (inosine monophosphate). The reaction was then initiated with 8 μμl of IMPDH (0.75 μg/ml). […] Reading of the samples was continued until 300 seconds. Cuvette #1 contained the control reaction (no inhibitor), and cuvette #2 contained the positive control reaction in which Cibacron Blue was substituted for inhibitor. The substrate was kept at a level at least 10 times the Km.

[10] = target: T3, HMG CoA reductase (HMGCoAR) (UniProt P04035); assay: HMGCoAR kinetic assay, spectrophotometric oxidation of NADPH at 340 nm; assay type: biochemical; conditions: Examples 36/37, FIG. 16/17
T3 sequence (P04035 1-888): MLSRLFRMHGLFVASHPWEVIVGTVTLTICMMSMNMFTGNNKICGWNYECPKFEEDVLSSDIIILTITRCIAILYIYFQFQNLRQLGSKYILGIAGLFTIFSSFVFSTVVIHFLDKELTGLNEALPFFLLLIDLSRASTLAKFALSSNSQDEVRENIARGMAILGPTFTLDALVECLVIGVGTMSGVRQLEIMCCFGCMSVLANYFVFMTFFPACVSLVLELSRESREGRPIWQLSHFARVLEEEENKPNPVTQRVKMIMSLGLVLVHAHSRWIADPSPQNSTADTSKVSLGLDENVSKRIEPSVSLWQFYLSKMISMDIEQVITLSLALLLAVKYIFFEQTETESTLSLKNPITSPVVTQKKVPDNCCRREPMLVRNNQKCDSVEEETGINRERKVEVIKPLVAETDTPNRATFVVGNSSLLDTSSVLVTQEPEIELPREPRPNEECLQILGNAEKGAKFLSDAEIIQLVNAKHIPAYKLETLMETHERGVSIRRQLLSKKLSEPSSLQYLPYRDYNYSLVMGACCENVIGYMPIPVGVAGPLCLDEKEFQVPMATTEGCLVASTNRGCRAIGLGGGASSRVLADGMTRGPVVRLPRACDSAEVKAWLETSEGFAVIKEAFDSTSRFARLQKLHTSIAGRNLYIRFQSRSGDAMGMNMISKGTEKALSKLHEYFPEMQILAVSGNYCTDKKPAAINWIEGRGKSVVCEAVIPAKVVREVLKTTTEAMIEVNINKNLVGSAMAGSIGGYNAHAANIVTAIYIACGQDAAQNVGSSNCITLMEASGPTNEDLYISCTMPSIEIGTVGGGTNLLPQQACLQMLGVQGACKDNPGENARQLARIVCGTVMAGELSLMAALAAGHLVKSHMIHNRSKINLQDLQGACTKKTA
Protocol: For HMGCoAR analysis, the compounds were screened using a kinetic protocol that spectrophotometrically evaluates oxidation of NADPH.
Stock solutions of each of the reagents were prepared in the following concentrations. Dilutions of the stock solutions were prepared prior to running the assay in the concentrations indicated below. The enzyme was diluted in 1 M NaCl. To prepare the dilution buffer, 10 μl of HMGCoAR (1 mg/ml) was mixed with 133 μl of 3 M NaCl solution and 257 μl of 25 mM KH2PO4 buffer (pH 7.5; containing 50 mM NaCl, μl mM EDTA (ethylenediaminetetraacetic acid), and 5 mM DTT (dithiothreitol).
The HMGCoAR reaction was monitored at 340 nm prior to and after addition of the inhibitor to detect background reaction with the inhibitor. Solutions of 500 nM of the inhibitors in DMSO were prepared to provide a final DMSO concentration of 2% of the total assay volume. […] The reaction was then initiated with 5 μl of HMGCoAR enzyme (1:40 dilution of 0.65 mg/ml). After the enzyme was added, the solution was mixed for 20 seconds, and the reaction was run for 10 minutes. After a 50 second lag, the samples were read in a Cary spectrophotometer at 340 nm. Reading of the samples was continued until 300 seconds. […] The substrate was kept at a level at least 10 times the Km.

Chain of glyceraldehyde-3-phosphate dehydrogenase (GAPDH) (P0A9B2 whole entry): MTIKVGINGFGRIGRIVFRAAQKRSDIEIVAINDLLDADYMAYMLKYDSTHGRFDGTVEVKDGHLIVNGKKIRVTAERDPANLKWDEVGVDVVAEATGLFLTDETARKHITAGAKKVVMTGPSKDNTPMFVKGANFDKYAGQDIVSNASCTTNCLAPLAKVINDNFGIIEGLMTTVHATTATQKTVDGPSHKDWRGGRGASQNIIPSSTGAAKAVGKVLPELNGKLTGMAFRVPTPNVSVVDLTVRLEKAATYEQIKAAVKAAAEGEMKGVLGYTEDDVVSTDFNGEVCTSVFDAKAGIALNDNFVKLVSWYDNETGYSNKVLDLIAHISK
Chain of dihydrofolate reductase (DHFR) (P00374 whole entry): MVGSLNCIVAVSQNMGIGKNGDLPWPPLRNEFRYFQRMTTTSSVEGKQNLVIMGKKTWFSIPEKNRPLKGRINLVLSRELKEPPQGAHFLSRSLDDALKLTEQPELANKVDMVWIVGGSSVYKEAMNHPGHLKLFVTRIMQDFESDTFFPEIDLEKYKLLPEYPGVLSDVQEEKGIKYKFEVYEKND
Chain of 1-deoxy-D-xylulose-5-phosphate reductase (DOXPR) (P45568 whole entry): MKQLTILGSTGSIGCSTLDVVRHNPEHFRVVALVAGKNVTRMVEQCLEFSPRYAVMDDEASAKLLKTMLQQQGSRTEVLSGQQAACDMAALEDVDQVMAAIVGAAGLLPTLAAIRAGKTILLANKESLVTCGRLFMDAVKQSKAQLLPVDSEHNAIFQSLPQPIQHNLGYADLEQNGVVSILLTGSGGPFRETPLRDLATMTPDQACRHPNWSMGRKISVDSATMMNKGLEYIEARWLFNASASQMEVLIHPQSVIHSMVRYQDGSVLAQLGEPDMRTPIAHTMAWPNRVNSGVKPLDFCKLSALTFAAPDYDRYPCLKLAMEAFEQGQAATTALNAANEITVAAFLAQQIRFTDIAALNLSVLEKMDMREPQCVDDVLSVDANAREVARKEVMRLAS
Chain of dihydrodipicolinate reductase (DHPR) (P04036 whole entry): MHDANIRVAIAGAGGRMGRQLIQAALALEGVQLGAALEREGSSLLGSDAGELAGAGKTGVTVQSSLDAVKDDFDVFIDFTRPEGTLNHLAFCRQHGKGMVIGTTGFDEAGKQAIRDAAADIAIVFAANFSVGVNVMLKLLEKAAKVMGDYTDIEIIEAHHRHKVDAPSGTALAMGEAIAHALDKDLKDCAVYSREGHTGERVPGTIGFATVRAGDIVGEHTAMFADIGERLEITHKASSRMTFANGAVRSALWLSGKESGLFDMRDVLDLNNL
Chain of isopropylmalate dehydrogenase (IPMDH) (P30125 whole entry): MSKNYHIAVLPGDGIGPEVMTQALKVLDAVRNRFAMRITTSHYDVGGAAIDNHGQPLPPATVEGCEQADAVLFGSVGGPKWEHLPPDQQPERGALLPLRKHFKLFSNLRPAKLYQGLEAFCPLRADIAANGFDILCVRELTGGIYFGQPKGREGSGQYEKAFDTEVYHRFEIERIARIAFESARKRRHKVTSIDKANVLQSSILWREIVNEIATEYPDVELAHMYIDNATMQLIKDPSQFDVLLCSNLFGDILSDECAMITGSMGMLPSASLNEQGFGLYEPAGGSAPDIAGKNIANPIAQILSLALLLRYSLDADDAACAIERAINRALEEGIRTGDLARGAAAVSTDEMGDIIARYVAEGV

Row | Compound | IC50 ([1]; read-out: IC50 for DHPR) [µM] | IC50 [2] [µM] | IC50 ([3]; read-out: IC50 for DOXPR) [µM] | inhibition of DHFR ([4]; Example 37, result in words) | IC50 ([5]; read-out: IC50 for GAPDH) [µM] | IC50 ([6]; Examples 36/37, FIG. 16/17) [µM] | inhibition of AR ([7]; Examples 36/37, result in words) | IC50 [8] | IC50 [9] [µM] | IC50 ([1]; IC50 for DHPR) [µM] | IC50 ([3]; IC50 for DOXPR) [µM] | IC50 ([5]; IC50 for GAPDH) [µM] | IC50 [10] [µM] | inhibition of IMPDH ([9]; Example 37, result in words) | IC50 ([4]; Examples 36/37, FIG. 16/17; read-out: IC50 for DHFR) [µM] | IC50 ([7]; Examples 36/37, FIG. 16/17) | IC50 ([9]; listed as Sa) [µM] | IC50 ([4]; read-out: IC50 for DHFR; Examples 36/37, FIG. 16/17) [µM] | IC50 ([6]; Example 37, FIG. 17) [µM]
1 | O=C1NC(=O)C(=Cc2ccc(-c3ccc(O)c(C(=O)O)c3)o2)S1 [Compound 5e, 5-[5-(2,4-dioxo-thiazolidin-5-ylidenemethyl)-furan-2-yl]-2-hydroxy-benzoic acid] | > 200 | > 50 | > 100 | No inhibition | > 200 | 46 | No inhibition | 21 µM | 2.15 |  |  |  |  |  |  |  |  |  | 
2 | O=C1NC(=O)C(=Cc2ccc(-c3cccc(C(=O)O)c3)o2)S1 [Compound 5b, 3-[5-(2,4-dioxo-thiazolidin-5-ylidenemethyl)-furan-2-yl]-benzoic acid] |  |  |  |  |  |  |  |  |  | > 400 | > 400 | > 400 | > 400 | No inhibition |  |  |  |  | 
3 | O=C1NC(=O)C(=Cc2ccc(-c3ccc(C(=O)O)cc3)o2)S1 [Compound 5a, 4-[5-(2,4-dioxo-thiazolidin-5-ylidenemethyl)-furan-2-yl]-benzoic acid] | > 200 | > 200 |  | No inhibiiton | > 200 |  |  | 116 µM and 140 µM | 58.8 |  |  |  |  |  | > 75 | 2.26 µM and 4.1 µM | > 200 |  | 
4 | O=C1NC(=S)SC1=Cc1ccc(-c2ccc(O)c(C(=O)O)c2)o1 [Compound 7e, 2-hydroxy-5-[5-(4-oxo-2-thioxo-thiazolidin-5-ylidenemethyl)-furan-2-yl]-benzoic acid] |  |  |  |  |  |  |  | 3.4 µM |  | 2.1 | 1.6 |  | 0.143 |  |  |  |  | 4.3 | 0.34
